The record followed here is patent publication US5354772A, “Indole analogs of mevalonolactone and derivatives thereof” (Sandoz Pharm. Corp., priority 1993, dated 1994).

pIC50: −log10 of the molar value. Where two headings read alike, the source gives them in different places. A value given as a limit tells only on which side of the number the result lay.

The target of assay [1] is T1, HMG-CoA reductase (Rattus norvegicus, UniProt P51639).
T1 construct: the microsomes are the source of the HMG-CoA reductase enzyme; from tissue; host or cells: liver microsomes, male Sprague-Dawley rats (150-225 g)
T1 sequence (P51639 1-887): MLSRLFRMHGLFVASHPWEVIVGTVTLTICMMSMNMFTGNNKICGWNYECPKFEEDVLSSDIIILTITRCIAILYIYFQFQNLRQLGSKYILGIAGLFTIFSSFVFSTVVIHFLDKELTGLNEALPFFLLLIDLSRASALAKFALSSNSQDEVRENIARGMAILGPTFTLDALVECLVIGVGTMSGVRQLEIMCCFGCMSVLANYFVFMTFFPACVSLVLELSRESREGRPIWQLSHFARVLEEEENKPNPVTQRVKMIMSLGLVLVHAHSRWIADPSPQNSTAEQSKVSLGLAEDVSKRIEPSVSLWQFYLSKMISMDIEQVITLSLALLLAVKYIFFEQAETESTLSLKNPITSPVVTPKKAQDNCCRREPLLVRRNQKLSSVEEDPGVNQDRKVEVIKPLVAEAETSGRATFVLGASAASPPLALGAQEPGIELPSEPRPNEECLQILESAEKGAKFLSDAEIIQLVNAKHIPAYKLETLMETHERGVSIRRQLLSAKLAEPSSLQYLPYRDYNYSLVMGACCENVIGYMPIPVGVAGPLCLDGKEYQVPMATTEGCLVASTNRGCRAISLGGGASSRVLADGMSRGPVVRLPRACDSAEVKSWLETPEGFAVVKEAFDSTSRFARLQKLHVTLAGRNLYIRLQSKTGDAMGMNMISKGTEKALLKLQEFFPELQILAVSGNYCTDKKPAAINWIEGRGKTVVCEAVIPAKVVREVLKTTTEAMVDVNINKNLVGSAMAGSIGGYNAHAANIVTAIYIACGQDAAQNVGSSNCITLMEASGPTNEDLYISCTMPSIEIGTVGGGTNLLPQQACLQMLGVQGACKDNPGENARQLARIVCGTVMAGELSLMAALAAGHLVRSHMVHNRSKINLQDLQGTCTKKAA
The experiment in a line: Test A. In Vitro Microsomal Assay of HMG-CoA Reductase Inhibition. The class given is biochemical. To be noted: rat liver microsomes, male Sprague-Dawley rats; read-out: IC50 (50% inhibition of HMG-CoA reductase activity). As to the method: Test A. In Vitro Microsomal Assay of HMG-CoA Reductase Inhibition:
200 μl. aliquots (1.08-1.50 mg./ml.) of rat liver microsomal suspensions, freshly prepared from male Sprague-Dawley rats (150-225 g. body weight), in Buffer A with 10 mmol. dithiothreitol are incubated with 10 μl. of a solution of the test substance in dimethylacetamide and assayed for HMG-CoA reductase activity as described in Ackerman et al., J. Lipid Res. 18, 408-413 (1977). In the assay the microsomes are the source of the HMG-CoA reductase enzyme which catalyzes the reduction of HMG-CoA to mevalonate. The assay employs a chloroform extraction to separate the product, [^14 C]mevalonolactone, formed by the HMG-CoA reductase reaction from the substrate, [^14 C]HMG-CoA. [^3 H]mevalonolactoneis added as an internal reference. Inhibition of HMG-CoA reductase is calculated from the decrease in specific activity [^14 C/^3 H]mevalonate) of test groups compared to controls.
IC50 is the concentration of the test substance in the assay system
calculated to produce a 50% inhibition of HMG-CoA reductase activity (Test
A) or sterol biosynthesis (Test B) .

For assay [2], the system named is sterol synthesis. In words: Test C. In Vivo Cholesterol Biosynthesis Inhibition Test. The arrangement: species or system rat. To be noted: for ED50: Rattus norvegicus, read-out: ED50 (inhibition of sterol synthesis). The text has this: Test C. In Vivo Cholesterol Biosynthesis Inhibition Test In vivo studies utilize male Wistar Royal Hart rats weighing 150±20 g. which have been kept for 7-10 days on an altered light cycle (6:30 A.M.-6:30 P.M. dark) housed two per cage and fed powdered Purina Rat Chow and water ad libitum. […] Controls receive vehicle alone. […] Two hours after mid-dark, blood samples are obtained under sodium hexobarbitol anesthesia and the serum separated by centrifugation. […] Inhibition of sterol synthesis is calculated from the reduction in the nCi of sterols formed from test groups compared to controls.

Assay [3] deals with Fu5AH rat hepatoma cell line. The experiment in a line: Test B. In Vitro Cell Culture Cholesterol Biosynthesis Screen. It counts as cell-based. To be noted: Fu5AH cells, 3 hours; for pIC50: [14C]acetate incorporation, read-out: IC50 (50% inhibition of sterol biosynthesis).
Description: The cell culture is prepared as follows: Stock monolayer cultures of the Fu5AH rat hepatoma cell line (originally obtained from G. Rothblat; see Rothblat, Lipids 9, 526-535 (1974)) are routinely maintained in Eagle's Minimum Essential Medium (EMEM) supplemented with 10% fetal bovine serum (FBS) in 75 cm.^2 tissue culture flasks. For these studies, when the cultures reach confluence, they are removed by mild enzymatic treatment with 0.25% trypsin in Hanks' balanced salt solution (without calcium and magnesium). After centrifugation of the cell suspension and aspiration of the enzymatic solution, the cell pellet is resuspended in an appropriate volume of media for seeding into 60 mm. tissue culture dishes. The cultures are incubated at 37° C. in an atmosphere of high humidity and 5% carbon dioxide. When the cultures are confluent (approximately 5 days), they are ready for use. The culture media is aspirated from the dishes and replaced with 3 ml. of EMEM supplemented with 5 mg./ml. of delipidized serum protein (DLSP) prepared by the method of Rothblat et al., In Vitro 12, 554-557 (1976). […] Enhanced 3-hydroxy-3-methylglutaryl Coenzyme A reductase (HMG-CoA reductase) activity is measurable in the cells in response to the lack of exogenous sterol. Following approximately 24 hours incubation at 37° C. in the DLSP supplemented media, the assay is initiated by the addition of 3 μCi of [^14 C]acetate and the test substance solubilized in dimethylsulfoxide (DMSO) or distilled water. Solvent controls and compactin-treated controls are always prepared. Triplicate 60 mm. tissue culture dishes are run for each group. After 3 hours incubation at 37° C., the cultures are examined microscopically using an inverted phase contrast microscope. Notations are made of any morphological changes which may have occurred in the cultures. The media is aspirated and the cell layer is gently washed twice with 0.9% sodium chloride solution (saline). The cell layer is then harvested in 3 ml. of 0.9% saline by gentle scraping with a rubber policeman and transferred to a clean glass tube with Teflon lined cap. The dishes are rinsed with 3 ml. of 0.9% saline and rescraped, and the cells are combined with the first harvest. The tubes are centrifuged at 1500 r.p.m. for 10 minutes in an IEC PR-J centrifuge, and the supernatant is aspirated.
The cells are then extracted as follows: One ml. of 100% ethanol is added to the cell pellet followed by sonication for 10 seconds with a "LO" setting of 50 on a Bronwell Biosonik IV. One hundred μl. are taken for protein determination. One ml. of 15% potassium hydroxide (KOH) is added, and the samples are thoroughly vortexed. Saponification is accomplished by heating the ethanol-KOH treated samples at 60° C. for 60 minutes in a water bath. Following dilution of the samples with 2 ml. of distilled water, they are extracted three times with 7 ml. of petroleum ether. The petroleum ether extracts are then washed three times with 2 ml. of distilled water and finally taken to dryness under a stream of nitrogen.
The obtained samples are then analyzed by thin layer chromatography (TLC) as follows: Residues from the petroleum ether extraction are taken up in a small volume of hexane and spotted on silica gel 60 TLC plates (E. Merck). Development of the plates is carried out in a three phase solvent system consisting of 150 parts by volume hexane: 50 parts by volume diethyl ether: 5 parts by volume glacial acetic acid.
Visualization is accomplished in an iodine vapor chamber. The plates are divided into five sections such that each section contains the molecules having the following approximate Rf values: section 1- 0-0.4, section 2- 0.4-0.55, section 3- 0.55-0.7, section 4- 0.7-0.9 and section 5- 0.9-1.0. Section 2 contains the non-saponifiable sterols. The five sections of the TLC plates are scraped into scintillation vials.
[4] abbreviates: male Wistar Royal Hart rats, serum [14C] sterols.

On to `Cn1c(/C=C/[C@@H]2C[C@@H](O)CC(=O)O2)c(-c2ccc(F)cc2)c2ccccc21` (relative stereo) [Example 4 (a), (E)-Trans-6-[2'-[3"-(4'"-fluorophenyl)-1"-methylindol-2"-yl]ethenyl]-4-hydroxy-3,4,5,6-tetrahydro-2H-pyran-2-one], for which the pIC50 in assay [1] is 5.52; in assay [3], 6.21. Also, in assay [2] (setting [4]), the ED50 was found to be 7 mg/kg.
For the compound `CC(C)n1c(/C=C/[C@@H](O)C[C@@H](O)CC(=O)O)c(-c2ccc(F)cc2)c2ccccc21` (relative stereo) [Example 8, Sodium erythro-(±)-(E)-3,5-dihydroxy-7-[3'-(4"-fluorophenyl)-1'-(1"-methylethyl)indol-2'-yl]hept-6-enoate], in assay [2], the ED50 amounted to 0.09 mg/kg. Besides, the pIC50 in assay [3] was 7.30.
Regarding `CC(C)n1c(/C=C/[C@H](O)C[C@@H](O)CC(=O)O)c(-c2ccc(F)cc2)c2ccccc21` (relative stereo) [Example 9, Sodium threo-(±)-(E)-3,5-dihydroxy-7-[3'-(4"-fluorophenyl)-1'-(1"-methylethyl)indol-2'-yl]hept-6-enoate], the ED50 in assay [2] worked out at 1.4 mg/kg. In addition, the pIC50 in assay [3] was 6.66.
Regarding `Cc1cc(C)cc(-c2c(/C=C/[C@@H](O)C[C@@H](O)CC(=O)O)n(C(C)C)c3ccccc23)c1` (relative stereo) [Example 14D, Sodium erythro-(±)-(E)-3,5-dihydroxy-7-[3'-(3",5"-dimethylphenyl)-1'-(1"-methylethyl)indol-2'-yl]hept-6-enoate], in assay [1], the pIC50 was 8.30. In addition, the ED50 in assay [2] (setting [4]) turned out to be 0.16 mg/kg.
Take `Cn1c(/C=C/[C@H](O)C[C@@H](O)CC(=O)O)c(-c2ccc(F)cc2)c2cccc(OCc3ccccc3)c21` (relative stereo) [Example 54]: the pIC50 in assay [1] was 3.33.
Consider `Cc1cc(C)c2c(-c3ccc(F)cc3)c(/C=C/[C@@H](O)C[C@@H](O)CC(=O)O)n(C(C)C)c2c1` (relative stereo) [Example 64], for which the pIC50 in assay [1] is 7.92; in assay [3], 7.52. Further, the ED50 in assay [2] (setting [4]) is 0.66 mg/kg.
With `Cn1c(CC[C@@H]2C[C@@H](O)CC(=O)O2)c(-c2ccc(F)cc2)c2ccccc21` (relative stereo) [Example 89], the pIC50 in assay [1] was 5.03.
As to `Cn1c(/C=C/[C@H]2C[C@@H](O)CC(=O)O2)c(-c2ccc(F)cc2)c2cccc(OCc3ccccc3)c21` (relative stereo) [Example 102], the pIC50 in assay [1] is less than 3.00.
For the compound `CCn1c(/C=C/[C@H]2C[C@@H](O)CC(=O)O2)c(-c2ccc(F)cc2)c2ccccc21` (relative stereo) [Example 111], the pIC50 in assay [3] was 6.72.
In the case of `Cc1cc(-c2c(/C=C/[C@H]3C[C@@H](O)CC(=O)O3)n(C(C)C)c3ccccc23)ccc1F` (relative stereo) [Example 113], the pIC50 in assay [1] is 7.52. Besides, in assay [2] (setting [4]), the ED50 was found to be 0.51 mg/kg.
As for `Cc1c(/C=C/[C@@H]2C[C@@H](O)CC(=O)O2)n(-c2ccccc2)c2ccccc12` (relative stereo) [Example 142], the pIC50 in assay [1] was 5.89; in assay [3], 5.82. Besides, the ED50 in assay [2] (setting [4]) was determined as 6.1 mg/kg.
Take `CC[C@H](C)C(=O)O[C@H]1CCC=C2C=C[C@H](C)[C@H](CC[C@@H]3C[C@@H](O)CC(=O)O3)[C@H]21` [Compactin, reference compound]: the values for the pIC50 in assay [1] and in assay [3] were 6.11 and 7.22, respectively. Besides, the ED50 in assay [2] (setting [4]) worked out at 3.5 mg/kg.
For the compound `COC(=O)CC(O)CC(O)/C=C/c1c(-c2ccc(F)cc2)c2ccccc2n1C` (stereo not drawn) [Example 1, Methyl (E)-3,5-dihydroxy-7-[3'-(4"-fluorophenyl)-1'-methylindol-2'-yl]hept-6-enoate], the figures for the pIC50 in assay [1] and in assay [3] were 5.77 and 6.10, respectively. The ED50 in assay [2] (setting [4]) was determined as 6.2 mg/kg.
As for `Cn1c(/C=C/C2CC(O)CC(=O)O2)c(-c2ccc(F)cc2)c2ccccc21` (stereo not drawn) [Example 3, (E)-6-[2'-[3"-(4'"-Fluorophenyl)-1"-methylindol-2"-yl]ethenyl]-4-hydroxy-3,4,5,6-tetrahydro-2H-pyran-2-one], the pIC50 in assay [1] was 5.78; in assay [3] it was 6.10. In addition, the ED50 in assay [2] (setting [4]) is greater than 10 mg/kg.
For `Cn1c(/C=C/[C@@H]2C[C@@H](O)CC(=O)O2)c(-c2ccc(F)cc2)c2ccccc21` [Example 10, (E)-Trans-6S-[2'-[3"-(4'"-fluorophenyl)-1"-methylindol-2"-yl]ethenyl]-4R-hydroxy-3,4,5,6-tetrahydro-2H-pyran-2-one], the values for the pIC50 in assay [1] and in assay [3] were 5.77 and 6.38, respectively. In addition, the “percentage change of sterol synthesis” value in assay [2] (at 4 mg./kg., male Wistar Royal Hart rats) is -47%.
In the case of `Cn1c(/C=C\[C@@H]2C[C@@H](O)CC(=O)O2)c(-c2ccc(F)cc2)c2ccccc21` [Example 12, (Z)-Trans-6S-[2'-[3"-(4'"-fluorophenyl)-1"-methylindol-2"-yl]ethenyl]-4R-hydroxy-3,4,5,6-tetrahydro-2H-pyran-2-one], the pIC50 in assay [1] was 5.04. Further, in assay [3] (at 1 μmolar, read-out: percentage change (%Δ) of sterol biosynthesis), the inhibition at 1 µM amounted to 16%.
For the compound `CCOC(=O)CC(O)CC(O)/C=C/c1c(-c2ccc(F)cc2)c2ccc(OCc3ccccc3)cc2n1C` (stereo not drawn) [Example 21], in assay [2] (setting [4]), the ED50 was 12.1 mg/kg. Also, the pIC50 in assay [3] is 6.70.
As for `Cn1c(/C=C/C(O)CC(O)CC(=O)O)c(-c2ccc(F)cc2)c2ccc(OCc3ccccc3)cc21` (stereo not drawn) [Example 23], the pIC50 in assay [1] is 7.05; in assay [3], 6.22.
Take `CCOC(=O)CC(O)CC(O)/C=C/c1c(-c2ccc(F)cc2)c2cc(Cl)ccc2n1C` (stereo not drawn) [Example 43]: the results for the pIC50 in assay [1] and in assay [3] were 5.02 and 6.13, respectively.
For the compound `CCOC(=O)CC(O)CC(O)/C=C/c1c(-c2ccc(F)cc2)c2ccccc2n1CC` (stereo not drawn) [Example 60], in assay [1], the pIC50 was 6.92. The ED50 in assay [2] (setting [4]) came to 0.87 mg/kg.
`CCOC(=O)CC(O)CC(O)/C=C/c1c(-c2ccc(F)cc2)c2ccc(OCc3ccccc3)cc2n1C(C)C` (stereo not drawn) [Example 75]: the pIC50 in assay [1] is 8.27.
In the case of `CCOC(=O)CC(O)CC(O)/C=C/c1c(C)c2ccccc2n1-c1ccccc1` (stereo not drawn) [Example 132], the pIC50 in assay [1] is 5.79. Besides, in assay [2] (at 10 mg./kg., male Wistar Royal Hart rats), the “percentage change of sterol synthesis” value is on record as -35%. The inhibition at 10 µM in assay [3] (at 10 μmolar, read-out: percentage change (%Δ) of sterol biosynthesis) came to 71%.
On to `CCC(C)C(=O)OC1CC(C)C=C2C=CC(C)C(CCC3CC(O)CC(=O)O3)C21` (stereo not drawn) [Mevinolin, reference compound], for which the ED50 in assay [2] amounted to 0.41 mg/kg.
